Activity calls are given as the source filed them.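 The calls were made as follows: active = a full or partial dose-response curve in at least two of three replicate runs; inactive = the rest.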

Chain of D(1B) dopamine receptor (Homo sapiens) (P21918 whole entry, looked up): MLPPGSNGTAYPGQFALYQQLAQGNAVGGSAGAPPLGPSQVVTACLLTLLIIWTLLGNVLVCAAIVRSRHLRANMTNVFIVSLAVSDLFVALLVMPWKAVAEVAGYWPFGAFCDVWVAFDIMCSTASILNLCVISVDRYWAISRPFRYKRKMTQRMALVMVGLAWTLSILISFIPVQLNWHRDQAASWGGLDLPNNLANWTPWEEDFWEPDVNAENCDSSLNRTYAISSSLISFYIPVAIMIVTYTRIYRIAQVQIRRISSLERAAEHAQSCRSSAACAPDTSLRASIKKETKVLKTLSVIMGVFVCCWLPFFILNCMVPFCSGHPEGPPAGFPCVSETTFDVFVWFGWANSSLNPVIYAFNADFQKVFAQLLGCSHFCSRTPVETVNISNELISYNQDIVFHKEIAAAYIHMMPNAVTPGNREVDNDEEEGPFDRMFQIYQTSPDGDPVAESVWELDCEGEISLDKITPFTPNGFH

The test has as its target D(1B) dopamine receptor (Homo sapiens) (UniProt P21918). Briefly: dopamine D5 receptor modulation at EC30 dopamine, dose response, selectivity assay for D1 allosteric modulator project, cell-based, HEK293, CRE-luciferase, luminescence (AID 857).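 Also: HEK 293 cells expressing human D5 with a CRE-driven luciferase reporter.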
Consider `Cc1[nH]n(-c2ccccc2)c(=O)c1S(=O)(=O)c1ccccc1`, for which the result was inactive. In the case of `C=CCNc1sc(C(=O)C(C)(C)C)c(N)c1C#N`, the result was inactive.

As to `Nc1nc(SCC(=O)OCc2ccccc2)[nH]c(=O)c1NC(=O)c1ccco1`, the outcome was inactive.

With `NC(=O)NC(=O)Nc1ccccc1Cl`, the outcome was inactive. As for `OCCNc1ncnc2c1c(-c1ccccc1)c(-c1ccccc1)n2Cc1ccco1`, the outcome was inactive. The same measure, in the same setting: the entry for `CSc1oc(-c2ccco2)nc1S(=O)(=O)c1ccc(Br)cc1` is “inactive”; for `CCN(CC)CCOc1c(Br)ccc2c1sc1nc3n(c(=O)c12)CCC3` it is “inactive”; for `CCOC(=O)c1cnn(-c2cccc(Cl)c2)c1N` it is “inactive”. Consider `Cc1c(-c2ccccc2)nc(N)c(C#N)c1-c1ccco1`, for which the EC50 (in general, the concentration that produces a half-maximal response) was 2010 nM. `O=C(CCNS(=O)(=O)c1ccc2c(c1)CCC(=O)N2)NCc1ccc2c(c1)OCO2`: the outcome was inactive. On the same count and under the same terms, the entry for `Cn1c(SCc2ccon2)nc2ccccc2c1=O` is “inactive”. Regarding `O=S(=O)(c1ccccc1)c1nc(-c2ccco2)oc1N1CCCCCC1`, the result was inactive. Consider `CCOC(=O)c1nn(-c2ccccc2C)c(=O)c(C#N)c1C`, for which the result was inactive. The same measure, in the same setting: with `CCC1(CC)C(=O)NC(=NCCc2c[nH]c3ccccc23)NC1=O` the entry was “inactive”; with `COC(=O)c1ccc(C(=O)OC)c(NC(=O)COC(=O)C23CC4CC(CC(O)(C4)C2)C3)c1`, “inactive”. As to `CCOc1ccc(-c2nnn(CC(=O)NCc3ccc(OC)cc3)n2)cc1OCC`, the EC50 is 473 nM. As to `O=C(Nc1cc(Cl)ccc1N1CCOCC1)c1cnccn1`, the result was inactive.

As to `CCCCCn1c(SCC(=O)OC)nc2c1c(=O)[nH]c(=O)n2C`, the result was inactive. On the same count and under the same terms, the entry for `CCOc1ccc(CC(=O)Nc2c(C(N)=O)oc3ccccc23)cc1OCC` is “inactive”; for `CCOC(=O)c1ccc(N2CN=C3SCC(=O)N3C2)cc1` it is “inactive”; for `CC(C)OC(=O)CSc1nnc(-c2cnccn2)n1-c1ccccc1` it is “inactive”. The same measure, in the same setting: with `CCOC(=O)C(O)(CCC(O)(C(=O)OCC)C(=O)OCC)C(=O)OCC` the entry was “inactive”; with `Cc1cc(N2CCN(S(=O)(=O)c3ccc4c(c3)OCCO4)CC2)n2ncnc2n1`, “inactive”. The same measure, in the same setting: the entry for `c1ccc(COc2nsnc2N2CCOCC2)cc1` is “inactive”; for `COc1ccc(Cc2nnc(NC(=O)c3c(-c4ccccc4)noc3C)s2)cc1` it is “inactive”; for `CC1(C)CC(=O)C2=C(C1)OC(N)=C(C#N)C2c1cccc(OC(=O)c2ccco2)c1` (centres undefined) it is “inactive”. For `C/C(N)=C(/C#N)C(=O)CSc1nnc(SCc2ccc(Cl)cc2)s1`, the outcome was inactive. The same measure, in the same setting: the entry for `c1ccc(C2CC(c3ccccc3)n3ncnc3N2)cc1` (centres undefined) is “inactive”.

With `O=C1C(Cl)=C(NCC2CCCO2)C(=O)N1Cc1ccccc1` (centres undefined), the outcome was inactive.

`O=C(CSc1nnc(COc2ccc(F)cc2)o1)N1c2ccccc2CCc2ccccc21`: the result was inactive.

In the case of `Cc1ccccc1NC(=O)c1nc[nH]c1C(=O)NCc1ccccc1`, the outcome was inactive. The same measure, in the same setting: with `O=C1c2ccccc2-c2onc3ccc(NCCCn4ccnc4)c1c23` the entry was “inactive”.

For `Cc1cc(Br)c2c(c1)=C(c1sc(N3CCCCCC3)nc1O)C(=O)N=2`, the EC50 is 1030 nM. Consider `CCOC(=O)c1oc2ccc(Br)cc2c1NC(=O)CN1CCN(C)CC1`, for which the result was inactive.

For `Cc1cc(C)n(CC(=O)n2c3c(c4ccccc42)CCCC3)n1`, the outcome was inactive. `CCOc1ccc(N/C(SC)=C(/C#N)C(N)=O)cc1`: the result was inactive.

With `CCC(=O)n1nc(-c2ccco2)nc1N`, the result was inactive. Turning to `CCOc1ccc(-c2noc(COC)n2)cc1OC`, the result was inactive.

In the case of `CCOC(=O)c1[nH]c2ccccc2c1NC(=O)C(C)(C)C`, the result was inactive.

For `CCCNc1nc2c(c(=O)[nH]c(=O)n2C)n1CCc1ccccc1`, the outcome was inactive. Still for that read-out and setting: with `Cc1cc(C)nc(SCC(=O)Nc2ncc3c(n2)CC(C)(C)CC3=O)n1` the entry was “inactive”. Still for that read-out and setting: with `CCCCn1c(=NC(=O)c2ccco2)c(C(=O)OCC)cc2c(=O)n3ccccc3nc21` the entry was “inactive”; with `CCc1nc(N)c(C#N)c(-c2ccncc2)c1C`, “inactive”. On the same count and under the same terms, the entry for `Cn1cnc2c1c(=O)n(Cc1ccc(F)cc1Cl)c(=O)n2C` is “inactive”; for `N#CCSc1ncnc2sc3c(c12)CCC3` it is “inactive”. With `COc1ccc2cc3c(N)nn(C(=O)Cc4ccccc4OC)c3nc2c1`, the EC50 was 635 nM. For the compound `CC(C)Sc1nc2c(c(=O)n1C)SC(C)C2` (centres undefined), the outcome was inactive.

As for `COc1c(S(=O)(=O)n2nc(C)cc2C)ccc(Cl)c1Cl`, the result was inactive. As for `O=C(CC1SC(=NC2CCCCC2)NC1=O)Nc1ccccc1` (centres undefined), the outcome was inactive. The same measure, in the same setting: the entry for `Cc1cccc(Cc2c(C)nc3c(C(=O)NCc4ccco4)cnn3c2C)c1` is “inactive”; for `CCOC(=O)CCSc1nc(C)c2ccccc2n1` it is “inactive”; for `CCOC(=O)c1sc(NC(=O)CSc2nncs2)c(C(=O)OCC)c1C` it is “inactive”. On the same count and under the same terms, with `COc1ccc(CCN(C)C(=O)C2CCCN(Cc3ccc(OC)c(OC)c3)C2)cc1OC` (centres undefined) the entry was “inactive”; with `O=S(=O)(Nc1cc(Cl)ccc1N1CCCCC1)c1cccs1`, “inactive”; with `COc1ccc(CN(C2CCCC2)S(=O)(=O)c2ccc(-n3cnnn3)cc2)cc1OC`, “inactive”.

On to `CCOC(=O)c1cc2c(=O)n3ccccc3nc2n(CCCOC)c1=NC(=O)c1cccnc1`, for which the result was inactive. `CCOC(=O)N1CCN(S(=O)(=O)c2ccc3c(c2)CCN3C(=O)C2CCC2)CC1`: the result was inactive. For `COC(=O)c1c(-c2ccccc2)csc1NC(=O)c1ccco1`, the result was inactive. Still for that read-out and setting: with `CCOC(=O)C1CCCN(C(=O)c2cc(Cl)ccc2Cl)C1` (centres undefined) the entry was “inactive”. On the same count and under the same terms, with `CCCc1nc2sc3ccccc3c(=O)c2c(=O)n1Cc1ccco1` the entry was “inactive”; with `Cc1cc(C)c(C#N)c(SCc2ccc(C#N)cc2)n1`, “inactive”. Still for that read-out and setting: with `COc1ccc(C2CC(c3cc(OC)ccc3OC)n3nnnc3N2)cc1` (centres undefined) the entry was “inactive”.

`Cc1sc2ncnc(SCC(=O)N3CCCC3)c2c1C`: the outcome was inactive. Turning to `COc1ccc(S(=O)(=O)N2CCSC2c2ccc(OC)c(OC)c2)cc1` (centres undefined), the result was inactive.

As to `CCCn1c(=NC(=O)c2ccco2)c(C(=O)OCC)cc2c(=O)n3ccccc3nc21`, the outcome was inactive.

Consider `Cc1noc(C)c1S(=O)(=O)N1CCCC(C(=O)NCc2ccccn2)C1` (centres undefined), for which the outcome was inactive. `CCc1ccc2[nH]c(=O)c(CN(Cc3nnnn3C3CCCC3)C3CCCCC3)cc2c1`: the outcome was inactive. Same read-out and setting: with `Cn1c(=O)c2c(-c3ccccc3)n(N3CCOCC3)cc2n(C)c1=O` the entry was “inactive”. Still for that read-out and setting: with `CCOc1cc(C2CC(=O)NC(SCC)=C2C#N)ccc1O` (centres undefined) the entry was “inactive”.

(Values after PubChem BioAssay AID857 (Vanderbilt High Throughput Screening Facility, 2007).)
